# According to paper PMC12383145, “Fluorescent Peptides Internalize HeLa Cells and Kill Multidrug-Resistant Clinical Bacterial Isolates” (Antibiotics, 2025):
# Values joined by “and” are separate entries in the source; they are usually repeats but may differ in a detail not shown here. Equal values may be shown once. Read-outs that look alike come from different tables or passages of the source. No end group written: not given here.
# Columns and labels:
# Format in all cases: cell-based
# [1] = tested on: S. aureus clinical isolate 109095; settings: S. aureus clinical isolate 109095
# Description: (§1) E. coli isolates 1004 (susceptible), 129797 (resistant), and 301755 (MDR) were selected for evaluation. Isolate 1004 was sensitive to all antibiotics tested. […] These findings identify it as a multidrug-resistant (MDR) strain and an extended-spectrum beta-lactamase (ESBL)-producing bacterium. For S. aureus, isolates 109095, 117719, and 124653 were evaluated. All three were resistant to penicillin, indicating beta-lactamase production mediated by the blaZ gene. Studies have shown that up to 90% of S. aureus isolates worldwide are penicillin-resistant, which implies that this antibiotic is ineffective in infections caused by this pathogen. […] Isolate 124653 was resistant to penicillin, tetracycline, and erythromycin, with the latter belonging to the group of macrolides, antibiotics that inhibit protein synthesis through interaction with the 50S […] subunit. For E. faecalis three isolates were selected: strains 213 (sensitive to all the antibiotics tested), strain 82 (resistant to streptomycin), and strain 179 (resistant to gentamicin). These clinical isolates were selected to assess the antimicrobial activity of the peptide RWQWRWQWR and its analogues conjugated to fluorescent molecules in strains against strains with susceptibility profiles.
# (§2) The analysis of synthesized peptides in ATCC reference strains and susceptible, resistant, and multidrug-resistant (MDR) clinical isolates was performed. The clinical isolates were obtained from the National Cancer Institute collection and were previously identified and antibiogrammed using the VITEK system. Additionally, the strains were characterized by MALDI-TOF. The strains were re-primed onto trypticase soy agar and subsequently preserved in Brain–Heart Infusion (BHI) broth containing 20% glycerol. For the MIC and MBC assays, the strains were reactivated and cultured in BHI until they reached their exponential growth phase.
# (§3) The minimum inhibitory concentration (MIC) of the peptides was determined by the broth microdilution technique, according to the Clinical and Laboratory Standards Institute (CLSI) guidelines, as previously described. Briefly, bacterial strains were incubated in BHI broth at 37 °C until they reached the exponential growth phase, and inocula were adjusted to 5 × 10^6 CFU/mL using calibration curves. Serial dilutions of the peptides to be evaluated in 96-well plates were made in 90 µL of Mueller Hinton broth at concentrations ranging from 200 to 6.25 µg/mL, and 10 µL of the inoculum adjusted to 5 × 10^6 CFU/mL was added. Finally, the plates were incubated at 37 °C for 24 h, and the absorbance at 620 nm was read. As a negative control, CMH, distilled water, and 10 µL of inoculum were used; for the positive control, vancomycin was used for Gram-positive strains and ciprofloxacin for Gram-negative strains at the MICs dictated by the CLSI; as a technical control, CMH with peptone water was used, and for the growth control, CMH was used with 10 µL of inoculum.
# (§4) To determine the minimum bactericidal concentration (MBC), the 96-well plates where the MIC was determined were used as a starting point. From these, an aliquot of the controls and those wells where no apparent bacterial growth was observed were spotted onto trypticase soy agar plates. The plates were incubated at 37 °C for 24 h, and the reading was taken, identifying the lowest concentration of the peptide where there was no bacterial growth as the MBC.
# [2] = tested on: clinical isolates of E. coli; settings: stated for the E. coli clinical isolates together
# Description: as §1, §2, §3, §4
# [3] = tested on: E. faecalis clinical isolate 82; settings: E. faecalis clinical isolate 82
# Description: as §1, §2, §3, §4
# [4] = tested on: E. coli clinical isolate 1004 (susceptible); settings: E. coli clinical isolate 1004
# Description: as §1, §2, §3, §4
# [5] = tested on: S. aureus clinical isolate 124653; settings: S. aureus clinical isolate 124653
# Description: as §1, §2, §3, §4
# [6] = tested on: E. faecalis clinical isolate 213; settings: E. faecalis clinical isolate 213
# Description: as §1, §2, §3, §4
# [7] = tested on: E. faecalis clinical isolate 179; settings: E. faecalis clinical isolate 179
# Description: as §1, §2, §3, §4
# [8] = tested on: E. coli clinical isolate 129797 (resistant); settings: E. coli clinical isolate 129797
# Description: as §1, §2, §3, §4
# [9] = tested on: E. coli clinical isolate 301755 (MDR); settings: E. coli clinical isolate 301755
# Description: as §1, §2, §3, §4
# [10] = tested on: E. faecalis ATCC 29212; settings: E. faecalis ATCC 29212
# Description: as §3, §4
# [11] = tested on: P. aeruginosa ATCC 27853; settings: P. aeruginosa ATCC 27853
# Description: as §3, §4
# [12] = tested on: K. pneumoniae ATCC 700603; settings: K. pneumoniae ATCC 700603
# Description: as §3, §4
# [13] = tested on: E. coli ATCC 25922; settings: E. coli ATCC 25922
# Description: as §3, §4
# [14] = tested on: S. aureus ATCC 25923; settings: S. aureus ATCC 25923
# Description: as §3, §4
# [15] = MTT cytotoxicity assay in HeLa cells; settings: HeLa cells, MTT; read-out: Cytotoxic Activity (IC50)
# Description: (§5) MTT assays were conducted in HeLa cells to evaluate the effect of fluorescent probe incorporation on the in vitro cytotoxic activity of the parent non-conjugated peptides. The cytotoxic effect of peptides 1, Abz-1 RhB-1, 2, and RhB-2 in HeLa cells was peptide concentration-dependent, with the highest anticancer activity observed at 200 µg/mL. Incorporation of 2-Abz and RhB at the N-terminal end reduced cytotoxic activity, while the binding of 2-Abz at the C-terminal end or FAM at the N-terminal end drastically diminished anticancer activity (Table 4).
# [16] = tested on: HeLa cells; assay: MTT cytotoxicity assay in HeLa cells; settings: HeLa cells, 200 µg/mL; listed as palindromic peptide
# Description: as §5
# [17] = tested on: S. aureus clinical isolate 11719; settings: S. aureus clinical isolate 11719
# [18] = tested on: clinical isolates of S. aureus; settings: stated for the S. aureus clinical isolates together
# Description: as §1, with “For E. faecalis three isolates were selected: strains 213 (sensitive to all the antibiotics tested), strain 82 (resistant to streptomycin), and strain 179 (resistant to gentamicin). These clinical isolates were selected to assess the antimicrobial activity of the peptide RWQWRWQWR and its analogues conjugated to fluorescent molecules in strains against strains with susceptibility profiles.” left out
# The minimum inhibitory concentration (MIC) of the peptides was determined by the broth microdilution technique, according to the Clinical and Laboratory Standards Institute (CLSI) guidelines, as previously described. […] Serial dilutions of the peptides to be evaluated in 96-well plates were made in 90 µL of Mueller Hinton broth at concentrations ranging from 200 to 6.25 µg/mL, and 10 µL of the inoculum adjusted to 5 × 10^6 CFU/mL was added. Finally, the plates were incubated at 37 °C for 24 h, and the absorbance at 620 nm was read. […]
# [19] = Hemolysis assay
# Description: Whole blood was collected into EDTA tubes and centrifuged at 2500 rpm for 10 min. The plasma and buffy coat were removed, and the erythrocytes were washed three times with 0.9% saline to yield a 4% cell suspension. In 96-well plates, 100 µL of peptide dilutions (6.25–200 µg/mL) were prepared in triplicate, and 100 µL of the erythrocyte suspension was added (final hematocrit 2%). Plates were incubated at 37 °C for 2 h, and then centrifuged again at 2500 rpm for 10 min. A 100 µL aliquot of the supernatant was transferred to a fresh plate, and absorbance was measured at 450 nm. Saline and 1× Triton X-100 served as the negative and positive controls, respectively. Hemolysis (%) was calculated as follows: %hemolysis=treatment absorbance−saline absorbance/1×triton absorbance−saline absorbance
substance,measurement,setting,value
"RWQWRWQWR-NH2 [peptide 1, RWQWRWQWR]",Minimal bactericidal concentration (MBC),[1],135 µM
same,Minimal inhibitory concentration (MIC),[1],135 µM
same,MIC,[2],17 to 34 µM
same,Minimal bactericidal concentration (MBC),[3],67/67 µM
same,Minimal bactericidal concentration (MBC),[4],> 135 µM
same,Minimal inhibitory concentration (MIC),[4],17 µM
same,Minimal bactericidal concentration (MBC),[5],> 135 µM
same,Minimal inhibitory concentration (MIC),[5],135 µM
same,Minimal bactericidal concentration (MBC),[6],135 µM
same,Minimal inhibitory concentration (MIC),[6],135 µM
same,Minimal bactericidal concentration (MBC),[7],135 µM
same,Minimal inhibitory concentration (MIC),[7],135 µM
same,Minimal inhibitory concentration (MIC),[8],34/34 µM
same,Minimal bactericidal concentration (MBC),[9],67 µM
same,Minimal inhibitory concentration (MIC),[9],34 µM
same,Minimal bactericidal concentration (MBC),[10],> 135 µM
same,Minimal inhibitory concentration (MIC),[10],135 µM
same,Minimal bactericidal concentration (MBC),[11],> 135 µM
same,Minimal inhibitory concentration (MIC),[11],67 µM
same,Minimal bactericidal concentration (MBC),[12],135 µM
same,Minimal inhibitory concentration (MIC),[12],67 µM
same,Minimal bactericidal concentration (MBC),[13],34 µM
same,Minimal inhibitory concentration (MIC),[13],17 µM
same,Minimal bactericidal concentration (MBC),[14],34 µM
same,Minimal inhibitory concentration (MIC),[14],17 µM
same,IC50,[15],77 µg/mL and 52 µM
same,cell viability,[16],about 20%
same,Minimal bactericidal concentration (MBC),[17],> 135 µM
same,Minimal inhibitory concentration (MIC),[17],135 µM
same,MIC,[18],135 µM
same,hemolysis,"[19]; at 200 µg/mL (highest tested concentration), 2 h, 37 °C, read-out: hemolysis",4.5%
same,hemolysis,"[19]; at the lowest MIC concentration, read-out: Percentage of hemolysis",1.1%
same,selectivity ratio,"[19]; peptide concentration at 10% hemolysis / IC50 in HeLa cells, read-out: Selectivity index",> 3
